The assay deals with Hartley guinea pigs. The conditions noted are these: guinea pig, in vivo.

With `CCCCN1CCCCC1C(=O)Nc1c(C)cccc1C` (centres unmarked) [bupivacaine], the “Duration, time for full recovery” value was about 90 min.

Consider `CCN(CC)CC(=O)Nc1c(C)cccc1C` [lidocaine], for which the “Duration, time for full recovery” value is “≈ 30 minutes”.
